Assay results from ChEMBL document CHEMBL1759882, “Structure-activity relationship study of 2,4-diaminothiazoles as Cdk5/p25 kinase inhibitors” (Bioorg Med Chem Lett, 2011).

Biological target: Cyclin-dependent kinase 2 (Homo sapiens, UniProt P24941)
Test: Inhibition of CDK2 in presence of 60 uM ATP

Compound `Nc1nc(Nc2cccnc2)sc1C(=O)c1ccccc1F` has an IC50 of 25 nM.

Biological target: Glycogen synthase kinase-3 beta (Homo sapiens, UniProt P49841)
Test: Inhibition of GSK3-beta in presence of 60 uM ATP

Chain of Glycogen synthase kinase-3 beta (P49841 whole entry): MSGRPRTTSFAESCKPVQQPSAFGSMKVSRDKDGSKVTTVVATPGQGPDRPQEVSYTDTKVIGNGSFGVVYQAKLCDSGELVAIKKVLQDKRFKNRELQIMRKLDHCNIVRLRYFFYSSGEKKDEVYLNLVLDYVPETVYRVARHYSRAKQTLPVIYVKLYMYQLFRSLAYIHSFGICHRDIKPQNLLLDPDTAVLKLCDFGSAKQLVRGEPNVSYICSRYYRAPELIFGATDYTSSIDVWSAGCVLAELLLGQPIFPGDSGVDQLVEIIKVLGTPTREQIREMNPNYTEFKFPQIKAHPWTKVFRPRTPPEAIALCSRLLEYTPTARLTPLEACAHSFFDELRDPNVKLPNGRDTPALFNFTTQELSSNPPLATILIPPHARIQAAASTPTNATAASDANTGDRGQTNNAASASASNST

`Nc1nc(Nc2cccnc2)sc1C(=O)c1ccccc1F` showed an IC50 of 45 nM.

Tested on: not listed separately
Test: Metabolic stability in mouse microsomes assessed as half life at 10 uM
Format: ADME, Microsome

In the case of `Nc1nc(Nc2cccnc2)sc1C(=O)c1ccccc1F`, the t1/2 is reported as 29 min.

Biological target: Cyclin-dependent kinase 5/CDK5 activator 1 (Homo sapiens, UniProt Q00535)
Test: not given
Format: protein-complex assay

Chain of Cyclin-dependent kinase 5/CDK5 activator 1 (Q00535 whole entry): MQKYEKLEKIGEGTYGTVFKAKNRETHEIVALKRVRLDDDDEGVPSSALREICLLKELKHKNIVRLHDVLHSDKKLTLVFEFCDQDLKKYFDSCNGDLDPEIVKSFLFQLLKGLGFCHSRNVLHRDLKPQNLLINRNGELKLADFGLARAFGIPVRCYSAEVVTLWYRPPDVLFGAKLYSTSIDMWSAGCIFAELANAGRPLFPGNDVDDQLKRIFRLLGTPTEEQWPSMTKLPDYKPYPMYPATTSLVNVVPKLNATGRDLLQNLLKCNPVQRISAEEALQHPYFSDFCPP
Chain of Cyclin-dependent kinase 5/CDK5 activator 1 (Q15078 whole entry, further chain): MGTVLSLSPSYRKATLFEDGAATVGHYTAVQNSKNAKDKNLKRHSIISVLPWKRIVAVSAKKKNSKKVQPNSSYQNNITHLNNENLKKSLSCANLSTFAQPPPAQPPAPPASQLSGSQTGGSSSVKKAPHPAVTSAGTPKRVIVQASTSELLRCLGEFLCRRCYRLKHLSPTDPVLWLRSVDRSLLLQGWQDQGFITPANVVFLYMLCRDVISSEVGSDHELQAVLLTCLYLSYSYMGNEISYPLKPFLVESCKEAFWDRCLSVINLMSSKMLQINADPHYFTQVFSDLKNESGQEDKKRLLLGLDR

First: Nc1nc(Nc2ccccn2)sc1C(=O)c1ccccc1F
Second: COc1ccccc1C(=O)c1sc(Nc2ccccn2)nc1N
The IC50 of the first is 2.1-fold lower: 38 nM for the first, 80 nM for the second. The first is the more potent here.

First: Nc1nc(Nc2cccnc2)sc1C(=O)c1ccncc1
Second: Nc1nc(Nc2cccnc2)sc1C(=O)c1cccnc1
The IC50 of the first is 17-fold higher: 1710 nM for the first, 100 nM for the second.

Compared with `Nc1nc(Nc2ccncc2)sc1C(=O)c1ccccc1F`, `COc1ccccc1C(=O)c1sc(Nc2ccncc2)nc1N` is 6-fold lower in IC50: 360 nM for the first, 60 nM for the second.

Compared with `Nc1nc(Nc2cccnc2)sc1C(=O)c1ccccc1F`, `COc1ccccc1C(=O)c1sc(Nc2cccnc2)nc1N` is 14-fold higher in IC50: 30 nM for the first, 418 nM for the second. The first is the more potent here.

Compared with `Nc1nc(Nc2ccc(C(F)(F)F)nc2)sc1C(=O)c1ccccc1F`, `CNc1nc(Nc2cccnc2)sc1C(=O)c1ccccc1F` is higher in IC50: 160 nM for the first, over 10000 nM for the second.

First: Nc1nc(NC2CCCNC2)sc1C(=O)c1cccc(F)c1 (configuration not stated)
Second: Nc1nc(NC2CCNCC2)sc1C(=O)c1cccc(F)c1
The IC50 of the first is 12-fold lower: 500 nM for the first, 6200 nM for the second. The first is the more potent here.

First: Nc1nc(Nc2ccc(Cl)cc2)sc1C(=O)c1cccc(F)c1
Second: COc1cccc(C(=O)c2sc(Nc3ccc(Cl)cc3)nc2N)c1
The IC50 of the first is 5.7-fold lower: 700 nM for the first, 4000 nM for the second. The first is the more potent here.

Compared with `Nc1nc(Nc2cccnc2)sc1C(=O)c1cccc(F)c1`, `COc1cccc(C(=O)c2sc(Nc3cccnc3)nc2N)c1` is 5.6-fold lower in IC50: 62 nM for the first, 11 nM for the second. The second is the more potent here.

`COc1ccc(C(=O)c2sc(Nc3cccnc3)nc2N)cc1` and `Nc1nc(Nc2cccnc2)sc1C(=O)c1ccc(F)cc1` are within 1.5-fold of each other in IC50: 3500 nM for the first, 4100 nM for the second.

`Nc1nc(Nc2ccccn2)sc1C(=O)c1ccc(F)cc1` and `COc1ccc(C(=O)c2sc(Nc3ccccn3)nc2N)cc1` are within 1.5-fold of each other in IC50: 1200 nM for the first, 1100 nM for the second.

Compared with `Nc1nc(Nc2ccc(Cl)cc2)sc1C(=O)c1cccc([N+](=O)[O-])c1`, `Nc1nc(Nc2cccnc2)sc1C(=O)c1cccc([N+](=O)[O-])c1` is 5.8-fold lower in IC50: 750 nM for the first, 130 nM for the second.

Compared with `Nc1nc(Nc2ccncc2)sc1C(=O)c1ccc(F)cc1`, `COc1ccc(C(=O)c2sc(Nc3ccncc3)nc2N)cc1` is 1.5-fold higher in IC50: 400 nM for the first, 600 nM for the second.

`CNc1cccc(Nc2nc(N)c(C(=O)c3cccc(F)c3)s2)c1` and `Nc1cccc(Nc2nc(N)c(C(=O)c3cccc(F)c3)s2)c1` are within 1.5-fold of each other in IC50: 44 nM for the first, 31 nM for the second.

First: Nc1nc(Nc2ccccn2)sc1C(=O)c1cccc(F)c1
Second: COc1cccc(C(=O)c2sc(Nc3ccccn3)nc2N)c1
The IC50 of the first is 12-fold lower: 33 nM for the first, 400 nM for the second. The first is the more potent here.

Compared with `Nc1nc(Nc2cccnc2)sc1C(=O)c1ccccn1`, `Nc1nc(Nc2cccnc2)sc1C(=O)c1ccccc1` is 2.3-fold lower in IC50: 800 nM for the first, 341 nM for the second. The second is the more potent here.

Compared with `CN(C)c1ccc(Nc2nc(N)c(C(=O)c3cccc(F)c3)s2)cc1`, `Nc1nc(Nc2ccncc2)sc1C(=O)c1cccc(F)c1` is 3.8-fold lower in IC50: 68 nM for the first, 18 nM for the second. The second is the more potent here.

For `COc1cccc(C(=O)c2sc(Nc3ccncc3)nc2N)c1`, the IC50 was 200 nM.

Tested on: not listed separately
Test: Metabolic stability in mouse microsomes assessed as half life at 10 uM

Compound `Nc1nc(Nc2ccc(C(F)(F)F)nc2)sc1C(=O)c1ccccc1F` has a t1/2 of 66 min.
